Reference: patent US10513694B2, “Thienopyrrole compounds and uses thereof” (PROMEGA CORPORATION, priority 2015, dated 2019)
Values joined by “and” are separate entries in the source; they are usually repeats but may differ in a detail not shown here. Equal entries are not always repeated. Structures can show the parent of a compound that is named as a salt.

These compounds were tested against NANOLUC® enzyme (Oplophorus gracilirostris, UniProt Q9GV45, A31E/A60N/A81I/F95D/I117V/K70R/L54V/L99Q/M102K/N193R/P142E/Q151K/Q38R/Q45L/V71I/Y165I) (assay: Inhibitor IC50 determination (NANOLUC enzyme, furimazine)). Settings: IC50 (uM), 0.4 ng/ml NANOLUC enzyme, final furimazine 10 uM (at Km).
Chain of NANOLUC® enzyme (Q9GV45 28-196 with tags or gaps with the stated changes limits assumed): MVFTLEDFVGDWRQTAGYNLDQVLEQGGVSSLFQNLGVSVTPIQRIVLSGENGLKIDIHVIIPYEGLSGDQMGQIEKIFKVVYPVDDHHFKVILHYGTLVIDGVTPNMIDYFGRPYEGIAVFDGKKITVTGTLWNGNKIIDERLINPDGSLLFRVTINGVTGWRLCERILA
Format: biochemical
Description: The following example provides the IC50 values for the compounds disclosed herein. See Table 5 NANOLUC® enzyme was diluted to 0.4 ng/ml in CO2 independent media+10% FBS to make the detection reagent. A 3× dilution series of each inhibitor was then made in the detection reagent. A “no inhibitor” control was also made for each sample. 50 ul of each inhibitor dilution was mixed with 50 ul of NanoGlo buffer containing 20 uM furimazine. (Final furimazine concentration is 10 uM which is at Km.), and luminescence measured. Each sample was normalized to the “no inhibitor” control. The […] values were then determined using GraphPad Prism (log [inhibitor] vs. normalized response).
`CCN(C(=O)Cn1c(C(=O)N2CCCC2)cc2sccc21)c1cccc(C)c1` [JRW-0008, N-ethyl-2-(5-(pyrrolidine-1-carbonyl)-4H-thieno[3,2-b]pyrrol-4-yl)-N-(m-tolyl)acetamide] showed an IC50 of 1.1 µM. In the case of `CCN(C(=O)Cn1c(C(=O)N2CCCCC2)cc2sccc21)c1cccc(C)c1` [JRW-0009, N-ethyl-2-(5-(piperidine-1-carbonyl)-4H-thieno[3,2-b]pyrrol-4-yl)-N-(m-tolyl)acetamide], the IC50 is reported as 2.7 µM. In the case of `CCN(C(=O)Cn1c(C(=O)N[C@H]2CC[C@H](C(=O)O)CC2)cc2sccc21)c1cccc(C)c1` [JRW-0034, trans-4-(4-(2-(ethyl(m-tolyl)amino)-2-oxoethyl)-4H-thieno[3,2-b]pyrrole-5-carboxamido)cyclohexane-1-carboxylic acid], the IC50 is reported as 0.059 µM. In the case of `CCN(C(=O)Cn1c(C(=O)N[C@H]2CC[C@@H](C(=O)OC)CC2)cc2sccc21)c1cccc(C)c1` [JRW-0041, methyl-cis-4-(4-(2-(ethyl(m-tolyl)amino)-2-oxoethyl)-4H-thieno[3,2-b]pyrrole-5-carboxamido)cyclohexane-1-carboxylate], the IC50 is reported as 0.2 µM. In the case of `CCN(C(=O)Cn1c(C(=O)N[C@H]2CC[C@H](C(=O)NCCO)CC2)cc2sccc21)c1cccc(C)c1` [JRW-0043, 4-(2-(ethyl(m-tolyl)amino)-2-oxoethyl)-N-(trans-4-((2-hydroxyethyl)carbamoyl)cyclohexyl)-4H-thieno[3,2-b]pyrrole-5-carboxamide], the IC50 is reported as 0.84 µM. In the case of `CCN(C(=O)Cn1c(C(=O)N[C@H]2CC[C@H](C(=O)NCCN(C)C)CC2)cc2sccc21)c1cccc(C)c1` [JRW-0044, N-(trans-4-((2-(dimethylamino)ethyl)carbamoyl)cyclohexyl)-4-(2-(ethyl(m-tolyl)amino)-2-oxoethyl)-4H-thieno[3,2-b]pyrrole-5-carboxamide], the IC50 is reported as 16.8 µM. In the case of `CCN(C(=O)Cn1c(C(=O)N[C@H]2CC[C@H](C(N)=O)CC2)cc2sccc21)c1cccc(C)c1` [JRW-0052, N-(trans-4-carbamoylcyclohexyl)-4-(2-(ethyl(m-tolyl)amino)-2-oxoethyl)-4H-thieno[3,2-b]pyrrole-5-carboxamide], the IC50 is reported as 1.3 µM. Compound `Cc1cccc(NC(=O)Cn2c(C(=O)NC3CCCCC3)cc3sccc32)c1` [JRW-0081, N-cyclohexyl-4-(2-oxo-2-(m-tolylamino)ethyl)-4H-thieno[3,2-b]pyrrole-5-carboxamide] has an IC50 of 19.4 µM. `COCCOCCN(C(=O)Cn1c(C(=O)NC2CCCCC2)cc2sccc21)c1cccc(C)c1` [JRW-0109, N-cyclohexyl-4-(2-((2-(2-methoxyethoxy)ethyl)(m-tolyl)amino)-2-oxoethyl)-4H-thieno[3,2-b]pyrrole-5-carboxamide] showed an IC50 of 10.1 µM. `COCCOCCN(C(=O)Cn1c(C(=O)N[C@H]2CC[C@H](C(=O)OC)CC2)cc2sccc21)c1cccc(C)c1` [JRW-0110, Methyl-trans-4-(4-(2-((2-(2-methoxyethoxy)ethyl)(m-tolyl)amino)-2-oxoethyl)-4H-thieno[3,2-b]pyrrole-5-carboxamido)cyclohexane-1-carboxylate] showed an IC50 of 3 µM. With `CCN(C(=O)Cn1c(C(=O)Nc2ccccc2)cc2sccc21)c1cccc(C)c1` [JRW-0143, 4-(2-(ethyl(m-tolyl)amino)-2-oxoethyl)-N-phenyl-4H-thieno[3,2-b]pyrrole-5-carboxamide] the IC50 was 2.8 µM and 2.6 µM. `CCN(C(=O)Cn1c(C(=O)N[C@H]2CC[C@H](C(=O)NCCCCCC(=O)OC)CC2)cc2sccc21)c1cccc(C)c1` [JRW-0145, methyl 6-(trans-4-(4-(2-(ethyl(m-tolyl)amino)-2-oxoethyl)-4H-thieno[3,2-b]pyrrole-5-carboxamido)cyclohexane-1-carboxamido)hexanoate] showed an IC50 of 0.12 µM. `CCCCCCN(C(=O)Cn1c(C(=O)NC2CCCCC2)cc2sccc21)c1cccc(C)c1` [JRW-0148, N-cyclohexyl-4-(2-(hexyl(m-tolyl)amino)-2-oxoethyl)-4H-thieno[3,2-b]pyrrole-5-carboxamide] was tested, and the IC50 was 5.3 µM. With `CCCCCCN(C(=O)Cn1c(C(=O)N[C@H]2CC[C@H](C(=O)OC)CC2)cc2sccc21)c1cccc(C)c1` [JRW-0149, methyl-trans-4-(4-(2-(hexyl(m-tolyl)amino)-2-oxoethyl)-4H-thieno[3,2-b]pyrrole-5-carboxamido)cyclohexane-1-carboxylate] the IC50 was 2.5 µM. `CCN(C(=O)Cn1c(C(=O)Nc2cccc(C(=O)OC)c2)cc2sccc21)c1cccc(C)c1` [JRW-0151, methyl 3-(4-(2-(ethyl(m-tolyl)amino)-2-oxoethyl)-4H-thieno[3,2-b]pyrrole-5-carboxamido)benzoate] was tested, and the IC50 was 7 µM. For `CCOC(=O)Cc1ccc(NC(=O)c2cc3sccc3n2CC(=O)N(CC)c2cccc(C)c2)cc1` [JRW-0152, ethyl 2-(4-(4-(2-(ethyl(m-tolyl)amino)-2-oxoethyl)-4H-thieno[3,2-b]pyrrole-5-carboxamido)phenyl)acetate], the IC50 was 4.3 µM. Work on `CCN(C(=O)Cn1c(C(=O)N[C@H]2CC[C@H](C(=O)NCCCCCCCC(=O)O)CC2)cc2sccc21)c1cccc(C)c1` [JRW-0188, 8-(trans-4-(4-(2-(ethyl(m-tolyl)amino)-2-oxoethyl)-4H-thieno[3,2-b]pyrrole-5-carboxamido)cyclohexane-1-carboxamido)octanoic acid] yielded an IC50 of 0.022 µM. Compound `CCN(C(=O)Cn1c(C(=O)N[C@H]2CC[C@H](C(=O)NC3CCN(C(C)=O)CC3)CC2)cc2sccc21)c1cccc(C)c1` [JRW-0195, N-(trans-4-((1-acetylpiperidin-4-yl)carbamoyl)cyclohexyl)-4-(2-(ethyl(m-tolyl)amino)-2-oxoethyl)-4H-thieno[3,2-b]pyrrole-5-carboxamide] has an IC50 of 0.48 µM. `CCN(C(=O)Cn1c(C(=O)NCCCCCCCC(=O)O)cc2sccc21)c1cccc(C)c1` [JRW-0198, 8-(4-(2-(ethyl(m-tolyl)amino)-2-oxoethyl)-4H-thieno[3,2-b]pyrrole-5-carboxamido)octanoic acid] gave an IC50 of 1 µM. Compound `CCN(C(=O)Cn1c(C(=O)NC2CCN(C(=O)CCCCC(=O)O)CC2)cc2sccc21)c1cccc(C)c1` [JRW-0208, 6-(4-(4-(2-(ethyl(m-tolyl)amino)-2-oxoethyl)-4H-thieno[3,2-b]pyrrole-5-carboxamido)piperidin-1-yl)-6-oxohexanoic acid] has an IC50 of 0.82 µM. With `CCN(C(=O)Cn1c(C(=O)N[C@H]2CC[C@H](C(=O)NCCCCCCN)CC2)cc2sccc21)c1cccc(C)c1` [JRW-0241, N-(trans-4-((6-aminohexyl)carbamoyl)cyclohexyl)-4-(2-(ethyl(m-tolyl)amino)-2-oxoethyl)-4H-thieno[3,2-b]pyrrole-5-carboxamide hydrochloride] the IC50 was 0.063 µM. `CCN(C(=O)Cn1c(C(=O)N[C@H]2CC[C@H](C(=O)NCCCCCCO)CC2)cc2sccc21)c1cccc(C)c1` [JRW-0242, 4-(2-(ethyl(m-tolyl)amino)-2-oxoethyl)-N-(trans-4-((6-hydroxyhexyl)carbamoyl)cyclohexyl)-4H-thieno[3,2-b]pyrrole-5-carboxamide] showed an IC50 of 0.035 µM. In the case of `CCN(C(=O)Cn1c(C(=O)N[C@H]2CC[C@H](C(=O)N[C@H]3CC[C@H](C(=O)OC)CC3)CC2)cc2sccc21)c1cccc(C)c1` [JRW-0243, methyl-trans-4-(trans-4-(4-(2-(ethyl(m-tolyl)amino)-2-oxoethyl)-4H-thieno[3,2-b]pyrrole-5-carboxamido)cyclohexane-1-carboxamido)cyclohexane-1-carboxylate], the IC50 is reported as 0.21 µM.
